According to patent publication US8926944B2, “Radiolabeled prostate specific membrane antigen inhibitors” (Molecular Insight Pharmaceuticals, priority 2011, dated 2015):
pIC50: −log10 of the molar value.

Experiments:
PSMA = target: T1, PSMA (Homo sapiens, UniProt Q04609); experiment: competitive binding assay against 123I-DCIT in PSMA positive LNCaP cells; conditions: Lu complexes; competition with 3 nM 123I DCIT on LNCaP cells, 1 hour at room temperature
T1 construct: host or cells: LNCaP human prostate cancer cells
Method: The compounds of Formula I or Formula II were screened in a human prostate cancer cell binding assay using PSMA positive (+), LnCap cells.
Briefly, LNCaP and PC3 human prostate cancer cells were obtained from American Type Culture Collection, Rockville, Md. LNCaP cells were maintained in RPMI-1640 medium supplemented with 10% fetal bovine serum (FBS). Binding of the radiolabeled compound and competition with cold derivatives to LNCaP cells was performed according to published methods. Cells were plated in 12-well plates at approximately 4×10^5 cells/well and incubated for 48 hours in a humidified incubator at 37° C./5% carbon dioxide prior to addition of compound. Solutions of the Formula I or Formula II compounds were prepared and diluted in serum-free cell culture medium containing 0.5% bovine serum albumin (BSA) in combination with 3 nM ^123I DCIT (known inhibitor). Total binding was determined by incubating ^123I-DCIT without test compound. Plates were incubated at room temperature for 1 hour. Cells were removed from the plates and transferred to eppendorff tubes. Samples were microcentrifuged for 15 seconds at 10K×g. The medium was aspirated and the pellet was washed twice by dispersal in fresh assay medium followed by microcentrifugation. Cell binding of ^123I DCIT was determined by counting the cell pellet in an automated gamma counter. Nonspecific binding was determined as the counts associated with the cells after incubating with 2 uM nonradiolabeled compound or 2-phosphonomethyl-pentanedioic acid (PMPA). Table 3 illustrates the IC50 values of representative Formula II complexes.

LNCap tumor cells = experiment: tissue biodistribution study in LNCap xenograft mice; format: in vivo; conditions: 177Lu complex; for concentration in kidneys versus LNCap tumor cells: 4 hours post administration; for concentration in LNCap tumor cells versus kidney: 24 hours and 96 hours post administration; for change of concentration in kidney: later time intervals (24 and 96 hours)
Method: FIG. 2 is a graph of the tissue biodistribution of a ^111In analog of the compound of Example 3, in LNCap Xenograft mice.
FIGS. 1A and 1B illustrate results of a bio-distribution study in LNCap xenograft mice of a GUG-DOTA-^177Lu complex (compound (A)) and a GUL-DOTA-^177Lu complex (compound (B)) according to Formula II.
In contrast, the inventive compounds accumulate within tumor cells with only a slight decrease in intratumoral concentration observed after 96 hours.
FIG. 2 illustrates results of a bio-distribution study in LNCap xenograft mice using a GUL-DOTA-^111In complex and a hydrophobic aminohexanoic acid linker. […] The inventors hypothesize that the low biodistribution of MIP-1450 LNCap tumor cells may be due to this compounds low affinity for PSMA expressed on the surface of LNCap cells. As stated above, it was unexpectedly that presence of carboxylic acid groups in the linker region increased affinity of Formula I compounds for PSMA. This increase in binding affinity is due, at least in part to additional cooperative binding interactions of the free carboxylic acid groups with amino acid residues of PSMA. Illustrative of Formula I compound-radionuclide complexes that have one or more carboxylic acid groups as part of the linker group include without limitation the following compounds: […]

T1 sequence (Q04609 whole entry): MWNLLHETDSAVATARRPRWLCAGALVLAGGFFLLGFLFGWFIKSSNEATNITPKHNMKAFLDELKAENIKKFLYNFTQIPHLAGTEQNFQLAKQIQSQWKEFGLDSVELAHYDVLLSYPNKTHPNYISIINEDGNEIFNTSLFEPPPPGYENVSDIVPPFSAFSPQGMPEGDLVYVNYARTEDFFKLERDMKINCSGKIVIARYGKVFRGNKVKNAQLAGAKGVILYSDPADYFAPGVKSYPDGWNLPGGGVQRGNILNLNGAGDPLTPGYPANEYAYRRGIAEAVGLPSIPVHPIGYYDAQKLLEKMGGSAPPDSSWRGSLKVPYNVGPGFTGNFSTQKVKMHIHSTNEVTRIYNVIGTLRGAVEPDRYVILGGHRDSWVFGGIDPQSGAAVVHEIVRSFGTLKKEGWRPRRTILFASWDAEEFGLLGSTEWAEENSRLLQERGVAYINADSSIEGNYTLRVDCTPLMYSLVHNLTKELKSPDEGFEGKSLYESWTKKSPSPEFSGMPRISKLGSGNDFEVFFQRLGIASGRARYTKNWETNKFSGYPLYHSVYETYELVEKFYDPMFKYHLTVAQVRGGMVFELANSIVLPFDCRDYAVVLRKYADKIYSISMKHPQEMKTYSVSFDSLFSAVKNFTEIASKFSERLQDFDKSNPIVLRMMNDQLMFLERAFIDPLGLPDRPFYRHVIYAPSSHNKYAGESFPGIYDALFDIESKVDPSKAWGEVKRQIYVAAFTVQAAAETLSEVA

Compound | pIC50 (PSMA) | further results
(10S,13S,20S,24S)-13-(2-carboxyethyl)-10-(4-fluorobenzyl)-8,11,14,22-tetraoxo-1-((4-((1,4,7,10-tetrakis(carboxymethyl)-1,4,7,10-tetraazacyclododecan-2-yl)methyl)phenyl)amino)-1-thioxo-2,9,12,15,21,23-hexaazahexacosane-20,24,26-tricarboxylate Lu complex [Lu-MIP-1550] | 7.66 | –
(10S,17S,21S)-10-(naphthalen-2-ylmethyl)-8,11,19-trioxo-1-((4-((1,4,7,10-tetrakis(carboxymethyl)-1,4,7,10-tetraazacyclododecan-2-yl)methyl)phenyl)amino)-1-thioxo-2,9,12,18,20-pentaazatricosane-17,21,23-tricarboxylate Lu complex [Lu-MIP-1545] | 8.00 | –
(3S,7S,14S,17S)-14-benzyl-5,13,16-trioxo-17-(6-(3-(4-((S)-1,4,7,10-tetrakis(carboxymethyl)-1,4,7,10-tetraazacyclododecan-2-yl)methyl)phenyl)thioureido)hexanamido)-4,6,12,15-tetraazanonadecane-1,3,7,19-tetracarboxylate Lu complex [Lu-MIP-1531] | 7.55 | –
(10S,17S,21S)-10-(2-carboxyethyl)-8,11,19-trioxo-1-((4-((1,4,7,10-tetrakis(carboxymethyl)-1,4,7,10-tetraazacyclododecan-2-yl)methyl)phenyl)amino)-1-thioxo-2,9,12,18,20-pentaazatricosane-17,21,23-tricarboxylate Lu complex [Lu-MIP-1523] | 7.27 | –
^177Lu-complex of (11S,16S,20S)-11-(2-carboxyethyl)-10,13,18-trioxo-1-((4-((1,4,7,10-tetrakis(carboxymethyl)-1,4,7,10-tetraazacyclododecan-2-yl)methyl)phenyl)amino)-1-thioxo-2,9,12,17,19-pentaazadocosane-16,20,22-tricarboxylate | – | concentration in kidneys versus LNCap tumor cells (LNCap tumor cells): concentrate to a greater extent in the kidneys than LNCap tumor cells; concentration in LNCap tumor cells versus kidney (LNCap tumor cells): the concentration is greater in LNCap tumor cells than kidney; change of concentration in kidney (LNCap tumor cells): significant reduction
(11S,16S,20S)-11-(2-carboxyethyl)-10,13,18-trioxo-1-((4-((1,4,7,10-tetrakis(carboxymethyl)-1,4,7,10-tetraazacyclododecan-2-yl)methyl)phenyl)amino)-1-thioxo-2,9,12,17,19-pentaazadocosane-16,20,22-tricarboxylate Lu complex [Lu-MIP-1519] | 7.92 | –
(16S,20S)-10,18-dioxo-1-((4-((1,4,7,10-tetrakis(carboxymethyl)-1,4,7,10-tetraazacyclododecan-2-yl)methyl)phenyl)amino)-1-thioxo-2,11,17,19-tetraazadocosane-16,20,22-tricarboxylate Lu complex [Lu-MIP-1512] | 7.64 | –
(11S,16S,20S)-11-benzyl-10,13,18-trioxo-1-((4-((1,4,7,10-tetrakis(carboxymethyl)-1,4,7,10-tetraazacyclododecan-2-yl)methyl)phenyl)amino)-1-thioxo-2,9,12,17,19-pentaazadocosane-16,20,22-tricarboxylate Lu complex [Lu-MIP-1548] | 7.11 | –
(13S,17S)-10,15-dioxo-1-((4-((1,4,7,10-tetrakis(carboxymethyl)-1,4,7,10-tetraazacyclododecan-2-yl)methyl)phenyl)amino)-1-thioxo-2,9,14,16-tetraazanonadecane-13,17,19-tricarboxylate Lu complex [Lu-MIP-1526] | 7.11 | –
O=C(O)CC[C@H](NC(=O)N[C@@H](CCCCNC(=O)[C@H](Cc1ccc2ccccc2c1)NC(=O)CCCCCNC(=S)Nc1ccc(CC2CN(CC(=O)O)CCN(CC(=O)O)CCN(CC(=O)O)CCN2CC(=O)O)cc1)C(=O)O)C(=O)O.[177Lu] (stereo partly drawn) [B, ^177Lu-complex of (10S,17S,21S)-10-(naphthalen-2-ylmethyl)-8,11,19-trioxo-1-((4-((1,4,7,10-tetrakis(carboxymethyl)-1,4,7,10-tetraazacyclododecan-2-yl)methyl)phenyl)amino)-1-thioxo-2,9,12,18,20-pentaazatricosane-17,21,23-tricarboxylic acid] | – | concentration in kidneys versus LNCap tumor cells (LNCap tumor cells): concentrate to a greater extent in the kidneys than LNCap tumor cells; concentration in LNCap tumor cells versus kidney (LNCap tumor cells): the concentration is greater in LNCap tumor cells than kidney; change of concentration in kidney (LNCap tumor cells): significant reduction
(10S,17S,21S)-10-(4-fluorobenzyl)-8,11,19-trioxo-1-((4-((1,4,7,10-tetrakis(carboxymethyl)-1,4,7,10-tetraazacyclododecan-2-yl)methyl)phenyl)amino)-1-thioxo-2,9,12,18,20-pentaazatricosane-17,21,23-tricarboxylate Lu complex [Lu-MIP-1546] | 7.82 | –
(10S,17S,21S)-10-benzyl-8,11,19-trioxo-1-((4-((1,4,7,10-tetrakis(carboxymethyl)-1,4,7,10-tetraazacyclododecan-2-yl)methyl)phenyl)amino)-1-thioxo-2,9,12,18,20-pentaazatricosane-17,21,23-tricarboxylate-Lu complex [Lu-MIP-1530] | 7.68 | –
